Test results from patent US8183395B2, “Compositions and methods for treating cancer” (Rutgers, The State University of New Jersey, priority 2007, dated 2012).

Key:
Assay type in all cases: cell-based
[1] = test system: W2 (apoptosis competent) cells; test: Apoptosis induction screen, MTT cell viability, W2 cells
Description: (§1) Pro-apoptotic Bax and Bak are the essential and redundant regulators of apoptosis required for suppressing tumor growth and chemotherapeutic response. Because D3 cells are genetically deleted for Bax and Bak, there is no means to restore apoptosis in these cells, yet all apoptosis regulatory mechanisms upstream (Bcl-2, Bcl-xL, Bim, Nbk/Bik, Puma, Noxa, caspase-3, caspase-7) remain intact. […] This feature permits the use of W2 and D3 cell lines in biological screening for compounds that promote apoptosis by the criteria of killing W2 and not D3 cells. Compounds that indiscriminately kill both apoptosis-competent W2 and apoptosis-defective D3 cells are eliminated as non-specifically toxic.
(§2) W2 and D3 cells were plated in 96 and 24-well plates and incubated for 24 hours after which they were evenly spread at about 50% confluency. At this time, compounds dissolved in DMSO and diluted in growth medium (DMEM) were added to the cells at various concentrations. […] Cell viability was determined using a modification of the MTT assay, where the reduction of yellow tertazolium salt (MTT-3-(4,5-Dimethylthiazol-2-yl)-2,5) to purple formazan indicates mitochondrial activity, and thus cell viability. […] After 30 minutes incubation at 37° C., with shaking, absorbance was read at 570 nm on a Spectra MAX 250 (Molecular Devices) plate reader. Differential growth from time 0 to 48 hours was calculated. […]

[2] = test system: apoptosis resistant D3 cells; test: Time-lapse microscopy of cell division and viability, D3 cells; design: dose or concentration left out as unconfirmed
Description: (§3) In order to determine the differential impact of apoptosis induction on cell growth and viability of W2 and D3 cells, cell division and viability was monitored via time-lapse microscopy. Cells were cultured in a time-lapse chamber equipped with controlled environmental conditions. The time-lapse microscopy system consisted of an Olympus IX71 inverted microscope fitted with temperature, humidity and CO2 controlled environmental chamber (Solent Scientific, UK) and a Coolsnap ES cooled
(§4) CCD camera. Image capturing and analysis were performed using Image-Pro Plus software (Media Cybernetics, USA). Phase contrast images (100×) at multiple fields were obtained for the indicated time period. Time-lapse images were converted to movies using Image-Pro Plus software with custom modifications and a graphic data processing workstation (Dell Precision 670).
(§5) W2 and D3 cells were incubated for 48 hours in the presence of Compound I […] (FIG. 3b).

[3] = test system: apoptosis competent W2 cells; test: Time-lapse microscopy of cell division and viability, W2 cells; design: sensitivity of W2 cells to apoptosis: dose or concentration left out as unconfirmed
Description: as §3, §4, §5

[4] = test system: D3 (apoptosis defective) cells; test: Apoptosis induction screen, MTT cell viability, D3 cells; conditions: MTT assay, time 0 to 48 hours, Compound I 12 μM (FIG. 3a)
Description: as §1, §2

Compound | apoptosis induction (positive control) ([1]; W2 and D3 cells, 0.1 μM staurosporine) | growth arrest in treated D3 cells [2] | survival of the D3 cells [2] | viability of D3 cells ([2]; at 48 hours, persisted following 72 hours) | death of W2 ([1]; MTT assay, time 0 to 48 hours, Compound I 12 μM (FIG. 3a)) | sensitivity of W2 cells to apoptosis ([3]; 48 hours) | time to induction of cell death of W2 cells (rounded and detached) ([3]; DMEM with 10% FBS, 5% CO2 at 37° C.) | growth of D3 [4]
CN[C@@H]1C[C@H]2O[C@@](C)([C@@H]1OC)n1c3ccccc3c3c4c(c5c6ccccc6n2c5c31)C(=O)NC4 [staurosporine, reference compound] | induced apoptosis at comparable levels to Compound I |  |  |  |  |  |  | 
C=C1CC/C=C(\C)CC[C@@H]2C(C(CC3OC3(C)C)OC(C)=O)=CO[C@H](OC(C)=O)[C@@H]12 (some centres unmarked) [Compound I, 9-deacetoxyxeniculin] |  | clear indication of growth arrest | at least 72 hours | retained their viability | 50% | highly sensitive to apoptosis | 18 to 24 h | 61%
